# Laboratory results: publication PMC4657899, “Design, Synthesis and In Vitro Activity of Anticancer Styrylquinolines. The p53 Independent Mechanism of Action” (PLoS ONE, 2015)
# How the values were obtained:
# HCT116 (p53+/+) = experiment: MTS anti-proliferative assay, HCT116 (p53+/+); assay type: cell-based, human; conditions: mean ± SD
# Method: (§1) The human colon adenocarcinoma cell line HCT116 along with wild type p53 (p53^+/+) were obtained from the ATCC. The normal human fibroblast cell line GM 07492 and HCT116 with a p53 deletion (p53^-/-) were kindly provided by prof. M. Rusin from Maria Sklodowska-Curie Memorial Cancer Center and Institute of Oncology in Gliwice, Poland. Cells were grown as monolayer cultures in 75 cm^2 flasks (Nunc) in Dulbecco’s modified Eagle’s medium with an antibiotic gentamicin (200 μL/100 mL medium). DMEM for HCT116 were supplemented with 12% heat-inactivated fetal bovine serum (Gibco) and for GM 07492 with 15% fetal bovine serum (Gibco). Cells were cultured under standard conditions at 37°C in a humidified atmosphere at 5% CO2.
# (§2) The cells were seeded in 96-well plates 24 h before the addition of the compounds that were tested. The assay was performed following a 72 h incubation with varying concentrations of the agents that were tested. The results were calculated as IC50 values (using GraphPad Prism 5). Each individual compound was tested in triplicate in a single experiment with each experiment being repeated three times. After a 72 h incubation with the compounds that were tested, 20 μL of The CellTiter 96®AQueous One Solution—MTS (Promega) solution was added to each well (with 100 μL DMEM without phenol red) and incubated for 1 h at 37°C. The optical densities of the samples were analyzed at 490 nm. Results were expressed as a percentage of the control.
# HCT116 (p53-/-) = experiment: MTS anti-proliferative assay, HCT116 (p53-/-); assay type: cell-based, human; conditions: for IC50: MTS, 72 h incubation, mean ± SD; for times more effective against HCT116 (p53-/-) than against wild type cells: ratio of MTS IC50 values
# Method: as §1, §2
# GM 07492 = experiment: MTS cytotoxicity assay, normal fibroblasts GM 07492; assay type: cell-based; conditions: 72 h incubation, normal human fibroblasts, mean ± SD
# Method: as §1, §2
# HCT116 +/+ = experiment: Trypan blue staining test, HCT116 +/+; assay type: cell-based, human; conditions: S2 Table, trypan blue cell counting, 72 h
# Method: (§3) The cells were seeded in 3 cm Petri dishes (Nunc) and incubated at 37°C. After 24h, solutions […]
# (§4) a 72 h incubation with tested compounds, the cells were trypsinize d with 0.05% Trypsin -EDTA solution (Sigma). Then, 90µl of suspension cells transferred into 96 -well plate containing 10µl Trypan blue reagent in wells. The cells were counted under an optical inverted microscope Olympus CKX31. The results from three independent experiment were calculated as IC 50 values using GraphPad Prism 5 software.
# HCT116 -/- = experiment: Trypan blue staining test, HCT116 -/-; assay type: cell-based, human; conditions: S2 Table, trypan blue cell counting, 72 h
# Method: as §3, §4
# Calf-thymus DNA (CT-DNA) = experiment: Spectrophotometric DNA binding (intercalation) study with CT-DNA; conditions: for % hypochromism / Δε / shift of the wavelength of maximum absorption, alone vs DNA-bound: 18 μM CT-DNA; for % hypochromism: 1.5 h 37°C, Tris-HCl pH 7.9; for % hypochromism / Δε: at the (first) absorption band (CP-31398: 312); for shift of the wavelength of maximum absorption, alone vs DNA-bound / Changes in absorbance: S3 Table; for Changes in absorbance: with CT-DNA
# Method: For the DNA binding studies, Calf-thymus DNA (CT-DNA) was purchased from Sigma Aldrich. The lyophilized CT-DNA was dissolved in 10 mM Tris-HCl, pH 7.9, mixed gently and left overnight at 4°C. Then, the concentration of CT-DNA was determined from the absorbance at 260 nm using an extinction coefficient of 6600 M^-1cm^-1. […] Afterwards, 18 μM CT-DNA was added to the prepared solutions and were incubated for 1.5 h at 37°C with occasional vortexing. Absorption spectra were measured using a Hitachi U-2900 spectrophotometer in range of 200–600 nm. All absorption spectra were imported and compared in OriginPro 8.0.
# P388 cell line = system: P388 cell line; set-up: method as in PMID 17904844; conditions: cited from earlier work
# PARP in HCT-116 cells = experiment: Immunoblotting, PARP cleavage; assay type: cell-based, human; conditions: 0, 10, 20, 40 μM
# Method: Specific antibodies were purchased from Sigma-Aldrich (anti-PARP, anti-tubulin and peroxidase-labeled secondary antibodies). Briefly, cellular lysates were prepared by harvesting cells in a Laemmli sample buffer. Proteins were separated on SDS-polyacrylamide gels and electroblotted onto nitrocellulose membranes. After blocking, the membranes were incubated with specific primary antibodies overnight, washed and then incubated with peroxidase-conjugated secondary antibodies. Finally, peroxidase activity was detected with ECL+ reagents (AP Biotech) using a CCD camera LAS-4000 (Fujifilm).
# colon cancer cells = system: colon cancer cells; set-up: method as in Arafa et al.; conditions: ref Arafa et al.; cited from earlier work
# SK-N-MC cell line = system: SK-N-MC cell line; set-up: method as in PMID 17142046; conditions: cited from earlier work
# [1] = Homo sapiens, HCT-116, 72 h incubation
structure (smiles),measurement,setting,value
COc1cccc2c1C(=O)c1c(O)c3c(c(O)c1C2=O)C[C@@](O)(C(=O)CO)C[C@@H]3O[C@H]1C[C@H](N)[C@H](O)[C@H](C)O1 [Doxorubicin],IC50,HCT116 (p53+/+); [1],5.95 ± 0.5 µM
same,IC50,"HCT116 (p53-/-); Homo sapiens, HCT-116",1.65 ± 0.21 µM
same,IC50,GM 07492; Fibroblast,3.38 ± 1.29 µM
same,IC50,"HCT116 +/+; Homo sapiens, HCT-116",2.83 µM
same,IC50,"HCT116 -/-; Homo sapiens, HCT-116",1.28 µM
same,% hypochromism,Calf-thymus DNA (CT-DNA),34.2%
same,% hypochromism,Calf-thymus DNA (CT-DNA); listed as DOX,"34,2%"
same,Δε,Calf-thymus DNA (CT-DNA),"3235,6 M−1 cm−1"
same,"shift of the wavelength of maximum absorption, alone vs DNA-bound",Calf-thymus DNA (CT-DNA),10
same,Changes in absorbance,Calf-thymus DNA (CT-DNA),hypochromism
same,shift in the wavelength on DNA binding,"Calf-thymus DNA (CT-DNA); blue shift for 5b, 6b, red shift for doxorubicin",10 nm
COc1cc(C=Cc2ccc3cccc(O)c3n2)cc(OC(C)=O)c1OC(C)=O [7b],IC50,HCT116 (p53+/+); [1],> 25 µM
same,IC50,"HCT116 (p53-/-); Homo sapiens, HCT-116",> 25 µM
same,melting point,,172 °C
"CCOc1ccc(C=Cc2ccc3cccc(O)c3n2)cc1 [16b, 2 – [2-(4-Ethoxyphenyl)vinyl]quinolin-8-ol]",IC50,HCT116 (p53+/+); [1],> 25 µM
same,IC50,"HCT116 (p53-/-); Homo sapiens, HCT-116",16.1 ± 4.84 µM
same,melting point,,130 °C
CC(=O)Oc1cc(OC(C)=O)c(C=Cc2ccc3cccc(OC(C)=O)c3n2)c(OC(C)=O)c1 [10b],IC50,HCT116 (p53+/+); [1],> 25 µM
same,IC50,"HCT116 (p53-/-); Homo sapiens, HCT-116",> 25 µM
same,melting point,,189 °C
"Oc1ccc(C=Cc2ccc3cccc(O)c3n2)c(O)c1 [20b, 2 – [2-(2,4-Dihydroxyphenyl)vinyl]quinolin-8-ol]",IC50,HCT116 (p53+/+); [1],> 25 µM
same,IC50,"HCT116 (p53-/-); Homo sapiens, HCT-116",> 25 µM
same,melting point,,273 °C
"CCOc1ccc(C=Cc2ccc3c(Cl)cc(Cl)c(O)c3n2)cc1 [3c, 5,7-Dichloro-2 – [2-(4-ethoxyphenyl)vinyl]quinolin-8-ol]",IC50,HCT116 (p53+/+); [1],2.23 µM
same,IC50,"HCT116 (p53-/-); Homo sapiens, HCT-116",3.53 ± 0.83 µM
same,IC50,GM 07492; Fibroblast,> 25 µM
same,% hypochromism,Calf-thymus DNA (CT-DNA),"11,6%"
same,Δε,Calf-thymus DNA (CT-DNA),"557,8 M−1 cm−1"
same,"shift of the wavelength of maximum absorption, alone vs DNA-bound",Calf-thymus DNA (CT-DNA),8
same,Changes in absorbance,Calf-thymus DNA (CT-DNA),hypochromism
same,melting point,,156 to 158 °C
Oc1cc(O)c(C=Cc2ccc3cccc(O)c3n2)c(O)c1 [9b],IC50,HCT116 (p53+/+); 72 h incubation,> 25 µM
same,IC50,HCT116 (p53-/-),> 25 µM
CC(=O)Oc1cccc(C=Cc2ccc3cccc(O)c3n2)c1 [4b],IC50,HCT116 (p53+/+); 72 h incubation,7.88 ± 1.98 µM
same,IC50,HCT116 (p53-/-),10.7 ± 3.76 µM
same,IC50,GM 07492,> 25 µM
CC(=O)Oc1ccccc1C=Cc1ccc2cccc(OC(C)=O)c2n1 [2b],IC50,HCT116 (p53+/+); 72 h incubation,8.08 ± 0.56 µM
same,IC50,HCT116 (p53-/-),14.7 ± 1.74 µM
same,IC50,GM 07492,6.92 ± 1.72 µM
Cc1ccc2c(n1)C(=O)C(NC(=O)/C=C/c1ccccc1)=CC2=O [IV],IC50,P388 cell line,1.44 µM
COc1cccc(C=Cc2ccc3cccc(O)c3n2)c1 [13b],IC50,HCT116 (p53+/+); [1],24.6 ± 4.36 µM
same,IC50,"HCT116 (p53-/-); Homo sapiens, HCT-116",18.4 ± 1.36 µM
same,IC50,GM 07492; Fibroblast,> 25 µM
Oc1cccc2ccc(C=Cc3ccccc3F)nc12 [11b],IC50,HCT116 (p53+/+); [1],15.4 ± 2.46 µM
same,IC50,"HCT116 (p53-/-); Homo sapiens, HCT-116",8.38 ± 1.12 µM
same,times more effective against HCT116 (p53-/-) than against wild type cells,HCT116 (p53-/-),2–3 times
same,IC50,GM 07492; Fibroblast,> 25 µM
same,melting point,,239 °C
"Oc1cccc2ccc(C=Cc3ccccc3Cl)nc12 [17b, 2 – [2-(2-Chlorophenyl)vinyl]quinolin-8-ol]",IC50,HCT116 (p53+/+); [1],9.84 ± 1.79 µM
same,IC50,"HCT116 (p53-/-); Homo sapiens, HCT-116",7.97 ± 3.24 µM
same,IC50,GM 07492; Fibroblast,20.2 ± 6.52 µM
same,PARP cleavage,PARP in HCT-116 cells,clearly observable
"CCOc1ccccc1C=Cc1ccc2cccc(O)c2n1 [15b, 2 – [2-(2-Ethoxyphenyl)vinyl]quinolin-8-ol]",IC50,HCT116 (p53+/+); [1],15.8 ± 3.32 µM
same,IC50,"HCT116 (p53-/-); Homo sapiens, HCT-116",12.8 ± 3.53 µM
same,melting point,,100 °C
COc1cc(/C=N/NC(=O)COc2c(Br)cc(Br)c3cccnc23)cnc1O [III],IC50,colon cancer cells,4.7 µM
CC(=O)Oc1cccc2ccc(C=Cc3ccccc3F)nc12 [12b],IC50,HCT116 (p53+/+); [1],12.1 ± 3.02 µM
same,IC50,"HCT116 (p53-/-); Homo sapiens, HCT-116",5.78 ± 0.78 µM
same,times more effective against HCT116 (p53-/-) than against wild type cells,HCT116 (p53-/-),2–3 times
same,IC50,GM 07492; Fibroblast,> 25 µM
same,melting point,,117 °C
CCCCOc1ccc(C=Cc2ccc3ccccc3n2)cc1 [3a],IC50,HCT116 (p53+/+); 72 h incubation,> 25 µM
same,IC50,HCT116 (p53-/-),> 25 µM
same,IC50,HCT116 +/+,> 25 µM
same,IC50,HCT116 -/-,> 25 µM
CC(=O)Oc1ccc(C=Cc2ccc3cccc(OC(C)=O)c3n2)c(OC(C)=O)c1OC(C)=O [14b],IC50,HCT116 (p53+/+); [1],17.9 ± 1.67 µM
same,IC50,"HCT116 (p53-/-); Homo sapiens, HCT-116",11.4 ± 1.02 µM
same,melting point,,194 °C
CC(=O)Oc1ccc(C=Cc2ccc3cccc(OC(C)=O)c3n2)c(OC(C)=O)c1 [8b],IC50,HCT116 (p53+/+); 72 h incubation,> 25 µM
same,IC50,HCT116 (p53-/-),> 25 µM
Oc1cccc2ccc(/C=C/c3ccc(Cl)cc3)nc12 [I],IC50,SK-N-MC cell line,0.77 µM
"Oc1cccc(C=Cc2ccc3cccc(O)c3n2)c1 [19b, 2 – [2-(3-Hydroxyphenyl)vinyl]quinolin-8-ol]",IC50,HCT116 (p53+/+); [1],16.3 µM
same,IC50,"HCT116 (p53-/-); Homo sapiens, HCT-116",10.6 ± 1.23 µM
"Oc1c(Cl)cc(Cl)c2ccc(C=Cc3ccccc3Cl)nc12 [2c, 5,7-Dichloro-2 – [2-(2-chlorophenyl)vinyl]quinolin-8-ol]",melting point,,205 to 210 °C
CC(=O)Oc1ccccc1C=Cc1ccc2cccc(O)c2n1 [3b],IC50,HCT116 (p53+/+); 72 h incubation,7.32 ± 1.01 µM
same,IC50,HCT116 (p53-/-),13.5 ± 0.81 µM
same,IC50,GM 07492,> 25 µM
"Oc1ccccc1C=Cc1ccc2cccc(O)c2n1 [18b, 2 – [2-(2-Hydroxyphenyl)vinyl]quinolin-8-ol]",IC50,HCT116 (p53+/+); [1],16.1 ± 0.88 µM
same,IC50,"HCT116 (p53-/-); Homo sapiens, HCT-116",15.2 ± 1.31 µM
same,melting point,,316 °C
Oc1ccccc1C=Cc1ccc2ccccc2n1 [1a],IC50,HCT116 (p53+/+); 72 h incubation,17.4 ± 2.2 µM
same,IC50,HCT116 (p53-/-),14.1 ± 2.24 µM
same,IC50,GM 07492,> 25 µM
"CCOc1ccccc1C=Cc1ccc2c(Cl)cc(Cl)c(O)c2n1 [1c, 5,7-Dichloro-2 – [2-(2-ethoxyphenyl)vinyl]quinolin-8-ol]",IC50,HCT116 (p53+/+); [1],5.93 ± 0.97 µM
same,IC50,"HCT116 (p53-/-); Homo sapiens, HCT-116",3.25 ± 1.81 µM
same,IC50,GM 07492; Fibroblast,> 25 µM
same,melting point,,100 to 102 °C
CCOc1ccc(C=Cc2ccc3ccccc3n2)cc1 [2a],IC50,HCT116 (p53+/+); [1],> 25 µM
same,IC50,"HCT116 (p53-/-); Homo sapiens, HCT-116",> 25 µM
